Assay results reported in US20240174693A1, “SOMATOSTATIN RECEPTOR SUBTYPE 4 (SSTR4) AGONISTS AND THEIR APPLICATIONS” (Humanwell Pharmaceutical US, priority 2022, published 2024).
In brackets after ≈: the same amount, converted by molar mass. Read-outs that look alike come from different tables or passages of the source.

How the values were obtained:
[1] = Plasma protein binding by dialysis; format: in vitro ADME; conditions: rat plasma; for Protein Binding Fu(%) / fraction unbound at 5 h, 1 μM: 1 μM, 5 hours dialysis at 37° C.; for fraction unbound at 5 h, 1 μM: read-out: Protein Binding Fraction unbound (fu) (converted)
Method: The following solutions were prepared: Solution A (0.5 mM) 10 μL of 10 mM stock solution was added into 190 μL of DMSO and Solution B (0.02 mM): 8 μL of Solution A was added into 192 μL of 0.05 M sodium phosphate buffer. The final DMSO concentration in Solution B is 4%.
A 96-well plate was preloaded with 380 μL aliquots of plasma in the wells designated for plasma and buffer, respectively. 20 μL of Solution B (0.02 mM of test and reference compounds) was spiked into the pre-loaded plasma in the 96-well plate. The final test concentration was 1 μM containing 0.2% DMSO.
Aliquots of 100 μL of blank dialysis buffer were applied to the receiver side of dialysis chambers. Next aliquots of 100 μL of the plasma spiked with test and reference compounds were applied to the donor side of the dialysis chambers. Blank buffer was added to the receiver first and the buffer and plasma chambers were clearly marked to avoid cross contamination.
Aliquots of 25 μL of plasma spiked with test and reference compounds were placed in 96-well sample preparation plates as t=0 min plasma samples. The aliquots were mixed with the same volume of blank buffer (50:50, v/v). The samples were quenched with 200 μL of acetonitrile containing internal standard (IS). The dialysis block was covered with a plastic lid and the entire apparatus was placed on a shaker (60 rpm) for 5 hours at 37° C.
25 μL aliquot from both the donor sides and receiver sides of the dialysis apparatus were placed into new sample preparation plates and mixed with the same valune of opposite matrixes (blank buffer to plasma and vice versa). The sample was quenched with 200 μL acetonitrile containing internal standard. All the samples from 0 hour to 5 hours were vortexed at 600 rpm for 10 minutes followed by centrifugation at 5594 g for 15 minutes (Thermo Multifuge×3R). 50 μL of the supernatant was transferred to a new 96-well plate and the sample was mized with 50 μL of Mili-Q water. The sample plate was covered and stored in a −20° C. freezer. The samples were subsequently analyzed by LC/MS/MS.

in vitro = conditions: rat, hepatocytes
Thermodynamic solubility = format: physicochemical; conditions: aqueous buffer, thermodynamic from solid, PBS(Ph 7.4), equilibrated over night at room temperature
Method: Assay buffer was added into compound powder to make 4 mg/ml solution. Sample tubes were shaken for 1 hour at 1000 rpm, then equilibrated over night at room temperature. Samples were centrifuged for 10 minutes at 12000 rpm to precipitate out un-dissolved particles. Supernatants were transferred to new tubes. Concentrations of the supernatants after centrifugation were determined by LCMSMS detection.

CYP2C9 = target: T1, CYP2C9 (Homo sapiens, UniProt P11712); assay: CYP inhibition in HLM, CYP2C9; format: in vitro ADME; conditions: read-out: CYP inhibition (IC50 um) 2C9
T1 construct: from tissue; host or cells: liver microsomes (HLM)
Method: 0.1 M potassium phosphate buffer (K-buffer), pH 7.4 was preheated. K-buffer was prepared by mixing 9.5 mL Stock A into 40.5 mL Stock B. The total volume was brought to 500 mL with Milli-Q water. The buffer was titrated with KOH or H3PO4 to pH 7.4. Stock A (1 M monobasic potassium phosphate) was prepared by adding 136.5 g of monobasic potassium phosphate into 1 L of Milli-Q water. Stock B (1 M dibasic potassium phosphate) was prepared by adding 174.2 g of dibasic potassium phosphate in 1 L of Milli-Q water.
Serial dilution for test compound and reference inhibitors (400×) was prepared in a 96-well plate. 8 μL of 10 mM test compounds was transferred to 12 μL of ACN. Inhibitor spiking solution was prepared for CYP1A2, CYP2C9 and CYP2D6 in cocktail by adding 12 μL of 1 mM α-Naphthoflavon, 10 μL of 40 mM Sulfaphenazole, 10 μL of 10 mM Quinidine, and 8 μL of DMSO. Individual inhibitor spiking solution for CYP3A4 and CYP2C19 was prepared by adding 8 μL of DMSO stock to 12 μL of ACN. 1:3 serial dilutions were performed in DMSO:ACN mixture (v/v: 40:60).
NADPH cofactor was prepared by dissolving 66.7 mg NADPH in 10 mL 0.1 M K-buffer, pH7.4. 4×substrate (2 mL for each isoform) was prepared. HLM was added were required on ice. 0.2 mg/mL HLM solution was prepared using 10 μL of 20 mg/mL to 990 μL of 0.1 M K-buffer on ice. 400 μL of 0.2 mg/mL HLM were added to the assay wells and then 2 μL of 400×test compound set were added into the designated wells on ice. 200 μL of 0.2 mg/mL HLM was added to the assay wells and followed by 1 μL of serially diluted reference inhibtor solution into the designated wells on ice. The following solutions were added in duplicated in a 96-well plate on ice: 30 μL of 2×test compound and reference compound in 0.2 mg/mL HLM solution and 15 μL of 4×substrate solution. The 96-well assay plate and NADPH solution were pre-incubated at 37° C. for 5 minutes. 15 μL of pre-warmed 8 mM NADPH solution was added to into the assay plates to initiate the reaction. The assay plate was incubated at 37° C. 5 mins, 10 mins, and 45 mins. […]

Solubility = format: physicochemical; conditions: aqueous buffer, kinetic from dmso stock; PBS(Ph 7.4), 1 hour shaking at room temperature; read-out: Solubility SolubilityU (um)
Method: 10 μL test compound was added to 990 μL buffer. Sample tubes were shaken for 1 hour (1000 rpm) at room temperature. Samples were centrifuged for 10 minutes at 1200 rpm to precipitate un-dissolved particles. Supernatants were collected for LCMSMS or LC-UV analysis.

hERG potassium channel = hERG potassium channel (Homo sapiens, UniProt Q12809); assay: in vitro; conditions: hERG Current Inhibition Rate (%) Mean
Hepatocyte stability = conditions: rat, hepatocytes
[2] = read-out: Thermodynamic Solubility Solubility
[3] = read-out: Thermodynamic Solubility Solubility (um)

T1 sequence (P11712 whole entry): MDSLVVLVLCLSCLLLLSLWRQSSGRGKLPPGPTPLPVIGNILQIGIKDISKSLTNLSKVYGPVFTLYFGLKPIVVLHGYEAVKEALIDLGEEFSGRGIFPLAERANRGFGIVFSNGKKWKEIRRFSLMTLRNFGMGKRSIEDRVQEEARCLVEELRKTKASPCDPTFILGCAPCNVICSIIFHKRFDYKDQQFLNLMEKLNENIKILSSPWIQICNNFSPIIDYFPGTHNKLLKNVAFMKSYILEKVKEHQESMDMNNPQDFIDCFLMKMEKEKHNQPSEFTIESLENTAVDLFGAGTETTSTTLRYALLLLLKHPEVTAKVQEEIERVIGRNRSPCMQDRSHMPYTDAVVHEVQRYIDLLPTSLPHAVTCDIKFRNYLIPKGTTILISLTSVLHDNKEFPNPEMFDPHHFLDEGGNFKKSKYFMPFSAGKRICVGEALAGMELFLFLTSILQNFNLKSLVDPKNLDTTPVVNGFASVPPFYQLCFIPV
Chain of hERG potassium channel (Q12809 whole entry): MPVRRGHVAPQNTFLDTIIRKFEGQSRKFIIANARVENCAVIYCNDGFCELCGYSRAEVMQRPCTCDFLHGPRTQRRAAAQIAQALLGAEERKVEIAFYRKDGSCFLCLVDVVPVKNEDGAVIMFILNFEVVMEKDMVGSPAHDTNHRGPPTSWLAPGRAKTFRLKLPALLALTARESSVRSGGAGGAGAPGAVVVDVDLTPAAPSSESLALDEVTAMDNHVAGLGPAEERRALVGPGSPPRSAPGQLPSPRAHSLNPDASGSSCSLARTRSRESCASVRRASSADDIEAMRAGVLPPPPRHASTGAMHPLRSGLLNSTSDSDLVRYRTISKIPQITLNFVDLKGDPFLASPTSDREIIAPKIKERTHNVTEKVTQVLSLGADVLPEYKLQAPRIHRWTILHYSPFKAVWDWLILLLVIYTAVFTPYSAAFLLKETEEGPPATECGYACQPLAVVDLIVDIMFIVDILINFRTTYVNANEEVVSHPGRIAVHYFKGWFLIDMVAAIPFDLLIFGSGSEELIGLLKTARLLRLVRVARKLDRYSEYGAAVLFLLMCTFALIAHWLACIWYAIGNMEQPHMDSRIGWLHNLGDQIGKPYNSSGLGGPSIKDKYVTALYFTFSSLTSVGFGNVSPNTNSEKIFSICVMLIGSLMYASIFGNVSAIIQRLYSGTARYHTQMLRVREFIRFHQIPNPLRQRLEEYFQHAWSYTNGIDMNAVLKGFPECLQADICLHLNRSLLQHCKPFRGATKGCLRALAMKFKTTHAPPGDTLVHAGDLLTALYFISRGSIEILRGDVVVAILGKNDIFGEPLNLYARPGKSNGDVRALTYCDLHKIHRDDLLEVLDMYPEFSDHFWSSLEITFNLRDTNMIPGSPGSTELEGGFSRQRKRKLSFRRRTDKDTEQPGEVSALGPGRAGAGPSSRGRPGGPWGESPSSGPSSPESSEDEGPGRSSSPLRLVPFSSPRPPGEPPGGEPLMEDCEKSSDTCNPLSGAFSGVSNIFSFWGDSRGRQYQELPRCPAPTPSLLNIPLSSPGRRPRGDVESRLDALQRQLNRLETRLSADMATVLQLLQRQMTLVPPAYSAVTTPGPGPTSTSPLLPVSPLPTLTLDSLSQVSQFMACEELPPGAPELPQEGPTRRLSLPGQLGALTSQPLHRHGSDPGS

CLint scaled at 1 μM (Hepatocyte stability) [mL/min/kg]	half-life at 1 μM (Hepatocyte stability) [h]	Structure (SMILES)	Protein Binding Category [1]	recovery at 5 h, 1 µM [1] [%]	Protein Binding Fu(%) [1] [%]	fraction unbound at 5 h, 1 μM [1]	CLint scaled at 1 μM (in vitro) [mL/min/kg]	half-life at 1 μM (in vitro) [h]	solubility thermodynamic (Thermodynamic solubility; [2]) [µg/mL]	solubility thermodynamic (Thermodynamic solubility; [3]) [µM]	IC50 (CYP2C9) [µM]	solubility at 1 h (Solubility) [µM]	inhibition at 0.3 µM (hERG potassium channel) [%]	inhibition at 1 µM (hERG potassium channel) [%]	inhibition at 3 µM (hERG potassium channel) [%]	inhibition at 10 µM (hERG potassium channel) [%]	inhibition at 30 µM (hERG potassium channel) [%]
		CC(C)(NC(=O)[C@H]1[C@@H]2CNC[C@H]1C2)c1ncc2c(Cl)cccn12 [Compound 7, (1R,5S,6r)-N-(2-(8-chloroimidazo[1,5-a]pyridin-3-yl)propan-2-yl)-3-azabicyclo[3.1.1]heptane-6-carboxamide]	Moderate	96.6	37.8	0.378	5.4	10	1680	4440	> 10	101.75 ± 0.03 (≈ 33.9 µg/mL)					
		CC(C)(NC(=O)[C@H]1[C@@H]2CNC[C@H]1C2)c1ncc2c(Br)cccn12 [Compound 8, (1R,5S,6r)-N-(2-(8-bromoimidazo[1,5-a]pyridin-3-yl)propan-2-yl)-3-azabicyclo[3.1.1]heptane-6-carboxamide]	Moderate	103	28.16	0.282	6.01	9	2080	4920	> 10	91.6 (≈ 34.6 µg/mL)	-3.49	-3.67	-2.44	-1.66	-0.15
3.17	17.1	CC(C)(NC(=O)[C@H]1[C@@H]2CNC[C@H]1C2)c1nc(C2CC2)c2ccccn12 [Compound 9, (1R,5S,6r)-N-(2-(1-cyclopropylimidazo[1,5-a]pyridin-3-yl)propan-2-yl)-3-azabicyclo[3.1.1]heptane-6-carboxamide]	Moderate	68.2	40.9	0.409			2250	6000	> 10	130.5 ± 0.02 (≈ 44.2 µg/mL)					
